Experimental findings from ChEMBL document CHEMBL1201862, “PubChem BioAssay data set” (2004) are described below.

Experiment in all cases: NCI anticancer screen, dose series, 48 h
Test [1] relates to OVCAR-8.
Test [2] relates to LOX IMVI.
Test [3] deals with UACC-62.
Test [4] concerns HCT-15.
Test [5] deals with HT-29.
Test [6] has as its system EKVX.
Test [7] has as its system UACC-257.
The test system of test [8] is RXF 393.
The subject of test [9] is HL-60.
Test [10] has as its system MOLT-4.
Test [11] concerns MDA-MB-435.
Test [12] has as its system A549.
Test [13] has as its system SN12C.
Test [14] has as its system SF-539.
Test [15] has as its system Malme-3M.
Test [16] deals with SF-295.
In test [17] the test system is SK-MEL-5.
The subject of test [18] is UO-31.
Test [19] relates to SK-MEL-2.
The test system of test [20] is HOP-92.

SMILES strings stand for the structures.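 Five concentrations, 48 hours, 96-well plates. The concentration for 50% growth inhibition is given as GI50.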 The source made the active and inactive calls. Cut-off read from the data, not from the text of the source: active = GI50 up to about 1.1 µM and inactive = higher.

Regarding `COc1ccc(Cc2cc(OC)c(OC)c(OC)c2)cc1O`, the GI50 in [1] is 0.0769 µM (active); in test [2], 0.0547 µM (active); in test [3], 0.457 µM (active); in [4] it was 0.019 µM; in test [5], 14.3 µM (inactive); in test [6], 24.7 µM (inactive). For the same molecule, the GI50 in test [7] is 3.95 µM (inactive); in test [8], 0.181 µM (active); in test [9], 0.0235 µM (active); in test [10] it was 0.0211 µM (active); in [11], < 0.01 µM (active); in test [12], 0.119 µM (active). Besides, the GI50 was 0.173 µM (active) in [13]; 0.0334 µM (active) in test [14]; 0.0389 µM (active) in test [15]; 0.286 µM (active) in test [16]; 0.0215 µM (active) in test [17]; 1.03 µM (active) in test [18]. The GI50 in test [19] is 0.0702 µM (active); in test [20] it was 0.119 µM (active).
As for `Cc1nc(N)nc2ccccc12`, the GI50 in test [1] was > 100 µM (inactive); in [2], > 100 µM (inactive); in [3], > 100 µM (inactive); in test [4] it was more than 100 µM; in test [5] it was > 100 µM (inactive); in [6] it was 44.8 µM (inactive). The GI50 in test [7], in test [8], in [9], in test [10], in test [11] and in test [12] was > 100 µM (inactive) each time. In addition, the GI50 in test [13], in test [14], in test [15], in test [16], in [17] and in test [18] was > 100 µM (inactive) in each case. In addition, the GI50 in test [19] and in test [20] was > 100 µM (inactive) each time.
Regarding `Nc1ncnc2nn(C3OC(CO)C(O)C3O)nc12` (stereo not given), the GI50 in test [1] was 8.11 µM (inactive); in test [2], 6.32 µM (inactive); in test [3] it was 25.4 µM (inactive); in test [4], 5.62 µM; in test [5] it was 8.81 µM (inactive); in test [6], 41.3 µM (inactive). The GI50 is 23.2 µM (inactive) in test [7]; 2 µM (inactive) in test [8]; 2.43 µM (inactive) in test [9]; 15.1 µM (inactive) in test [10]; 9.1 µM (inactive) in test [11]; 9.16 µM (inactive) in [12]. Moreover, the GI50 is 8.02 µM (inactive) in test [13]; 21.8 µM (inactive) in [14]; 20.5 µM (inactive) in test [15]; 22 µM (inactive) in test [16]; 12.8 µM (inactive) in test [17]; 6.44 µM (inactive) in test [18]. Further, the GI50 in test [19] is 2.99 µM (inactive); in test [20], 20 µM (inactive).
Regarding `CCOC(=O)c1oc2cc3c(c4c2c1-c1ccccc1N4C)C=CC(C)(C)O3`, the GI50 was 5.85 µM (inactive) in test [1]; 16.4 µM (inactive) in test [2]; 11.9 µM (inactive) in [3]; 50.4 µM in test [4]; 9.51 µM (inactive) in test [5]; 15.3 µM (inactive) in test [6]. In addition, the GI50 is 31.2 µM (inactive) in test [7]; 7.31 µM (inactive) in test [8]; 24.4 µM (inactive) in test [9]; 14 µM (inactive) in [10]; 52.1 µM (inactive) in test [11]; 24.5 µM (inactive) in test [12]. Besides, the GI50 is 40.6 µM (inactive) in [13]; 6.4 µM (inactive) in test [14]; 12 µM (inactive) in test [15]; 8.81 µM (inactive) in [16]; 15.8 µM (inactive) in test [17]; 19.5 µM (inactive) in [18]. Besides, the GI50 in test [19] is 26.6 µM (inactive); in test [20] it was 3.72 µM (inactive).
Consider `[N-]=[N+]=NC1C(O)C(CO)OC1n1ccc(=O)[nH]c1=O` (stereo not given), for which the GI50 in test [1] was > 875 µM (inactive); in test [2], > 875 µM (inactive); in [3], > 875 µM (inactive); in test [4] it was more than 875 µM; in test [5], > 875 µM (inactive); in test [6], 344 µM (inactive). The GI50 in [7] is > 875 µM (inactive); in test [8], 0.0875 µM (active); in test [9], 863 µM (inactive); in [10], > 875 µM (inactive); in test [11], > 875 µM (inactive); in test [12], > 875 µM (inactive). In addition, the GI50 in [13], in test [14], in test [15], in [16], in test [17] and in [18] was > 875 µM (inactive) throughout. For the same molecule, the GI50 in test [19] and in [20] was > 875 µM (inactive) each time.
With `CC1(C)OC[C@@H]([C@H](O)C2C=CC(=O)S2)O1` (stereo not given in full), the GI50 is 21.2 µM (inactive) in test [1]; 15.7 µM (inactive) in test [2]; 14.6 µM (inactive) in test [3]; 19.8 µM in test [4]; 23.6 µM (inactive) in test [5]; 31 µM (inactive) in [6]. The GI50 in [7] was 26.8 µM (inactive); in [8], 15 µM (inactive); in test [9], 8.73 µM (inactive); in [10], 32 µM (inactive); in test [11] it was 37.8 µM (inactive); in test [12], 29.6 µM (inactive). Also, the GI50 was 27.9 µM (inactive) in test [13]; 27.4 µM (inactive) in test [14]; 18.1 µM (inactive) in [15]; 27.5 µM (inactive) in test [16]; 18.7 µM (inactive) in test [17]; 20.8 µM (inactive) in test [18]. Also, the GI50 in [19] is 20.3 µM (inactive); in test [20], 22.4 µM (inactive).
Consider `COC1=CC(=O)O/C1=C(\OC)C1OC1c1ccccc1` (stereo not given), for which the GI50 in test [1] was > 100 µM (inactive); in [2], > 100 µM (inactive); in [3], > 100 µM (inactive); in test [4], more than 100 µM; in test [5], > 100 µM (inactive); in [6], > 100 µM (inactive). For the same molecule, the GI50 in [7] is > 100 µM (inactive); in test [8], > 100 µM (inactive); in test [9], 85.7 µM (inactive); in test [10] it was 53.7 µM (inactive); in test [11] it was > 100 µM (inactive); in test [12] it was > 100 µM (inactive). For the same molecule, the GI50 in [13], in test [14], in test [15], in [16], in test [17] and in [18] was > 100 µM (inactive) each time. In addition, the GI50 in test [19] and in test [20] was > 100 µM (inactive) throughout.
As for `CC1(C)CCC2=C(O1)/C(=N\Nc1ccccc1)c1ccccc1C2=O`, the GI50 was 36.2 µM (inactive) in test [1]; 22 µM (inactive) in [2]; 34.6 µM (inactive) in test [3]; 29.6 µM in test [4]; 15.9 µM (inactive) in [5]; 20.9 µM (inactive) in [6]. Further, the GI50 in test [7] is 18.7 µM (inactive); in [8] it was 16.6 µM (inactive); in test [9] it was 35.8 µM (inactive); in test [10], 34 µM (inactive); in [11], 30.8 µM (inactive); in test [12] it was 27.2 µM (inactive). Besides, the GI50 in [13] was 20.3 µM (inactive); in test [14] it was 26.5 µM (inactive); in test [15], 43.9 µM (inactive); in test [16], 24.9 µM (inactive); in [17] it was 32.1 µM (inactive); in test [18], 17.8 µM (inactive). Also, the GI50 in [19] is 16 µM (inactive); in [20], 24 µM (inactive).
`CN(C)CCCOC(=O)C(c1ccccc1)C1(O)CCSCC1` (stereo not given): the GI50 in test [1] is > 100 µM (inactive); in [2], > 100 µM (inactive); in test [3], > 100 µM (inactive); in test [4] it was more than 100 µM; in test [5] it was > 100 µM (inactive); in test [6], > 100 µM (inactive). Besides, the GI50 in test [7], in test [8], in [9], in [10], in [11] and in test [12] was > 100 µM (inactive) throughout. The GI50 in test [13], in test [14], in test [15], in [16], in [17] and in test [18] was > 100 µM (inactive) throughout. In addition, the GI50 in [19] and in test [20] was > 100 µM (inactive) each time.
Consider `COC(=O)[C@@]12C(=O)C=CC(=O)[C@@H]1C1C(=CC2COC(C)=O)O[C@@H]2OC3(CCCCC3)O[C@H]12` (stereo not given in full), for which the GI50 in test [1] was 7.94 µM (inactive); in test [2], 9.95 µM (inactive); in test [3], 12.9 µM (inactive); in [4], 5.66 µM; in test [5] it was 6.01 µM (inactive); in test [6], 15.4 µM (inactive). Moreover, the GI50 in test [7] is 16.3 µM (inactive); in test [8], 11.1 µM (inactive); in test [9], 2.89 µM (inactive); in test [10] it was 3.29 µM (inactive); in test [11], 16.2 µM (inactive); in test [12], 14.5 µM (inactive). Moreover, the GI50 in test [13] is 15.5 µM (inactive); in test [14], 10.4 µM (inactive); in [15], 15.7 µM (inactive); in test [16] it was 16.1 µM (inactive); in [17] it was 18 µM (inactive); in [18] it was 14.9 µM (inactive). For the same molecule, the GI50 is 20.2 µM (inactive) in [19] and 8.49 µM (inactive) in test [20].
